Laboratory results from US6492137B1, “Response element compositions and assays employing same” (The Salk Institute for Biological Studies, priority 1989, dated 2002).

Tests used:
VDR = target: T1, VDR (Homo sapiens, UniProt P11473); assay: ΔSV-CAT reporter cotransfection assay in CV-1 cells with VDR expression plasmid, ±VD3; type: cell-based; parameters: expressed in transfected cells; host or cells: CV-1 (monkey kidney); conditions: VD3 100 nM
T1 sequence (P11473 1-427): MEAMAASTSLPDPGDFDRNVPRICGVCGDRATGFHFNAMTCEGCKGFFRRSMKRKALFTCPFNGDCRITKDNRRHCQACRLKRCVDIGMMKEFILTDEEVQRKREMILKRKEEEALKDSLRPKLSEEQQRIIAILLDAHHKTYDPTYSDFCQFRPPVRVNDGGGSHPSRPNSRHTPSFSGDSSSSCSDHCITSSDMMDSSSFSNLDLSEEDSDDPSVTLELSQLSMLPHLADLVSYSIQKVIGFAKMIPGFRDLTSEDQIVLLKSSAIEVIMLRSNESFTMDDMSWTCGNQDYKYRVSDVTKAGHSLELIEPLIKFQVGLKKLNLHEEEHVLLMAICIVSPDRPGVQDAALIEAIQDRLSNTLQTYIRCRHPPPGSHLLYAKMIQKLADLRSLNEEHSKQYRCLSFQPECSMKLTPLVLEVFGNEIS
Source text: Receptor expression plasmids used in the following cotransfection assays have been described previously (pRShTRβ [see Thompson, et al., Proc. Natl. Acad. Sci. U.S.A. 86: 3494-3498 (1989)]; pRShRARα [see Giguere, et al., Nature 330: 624-629 (1987)]; pRShRARβ and pRshRARγ [see Ishikawa, et al., Mol. Endocrinol, 4: 837-844 (1990)]; and pRShVDR, [Schule, et al., Cell 61: 497-504 (1990)]. A basal reporter plasmid ΔSV-CAT was constructed by replacing the TK promoter in TK-CAT [Damm, et al., Nature 339: 593-597 (1989)] with the SphI-HindIII fragment of the SV40 early promoter. All of the recombinant CAT reporter plasmids used herein harbor a single copy of the indicated oligonucleotides at the unique HindIII site upstream of the SV40 promoter. Identity of the inserted oligonucleotides was confirmed by sequencing. To improve production of receptor proteins in COS cells, a new eukaryotic expression vector pCMX was prepared by modifying the plasmid CDM8 [Seed, B., Nature 329: 840-842 (1987)]. The CDM8 was cut with MluI and StuI in order to release the DNA fragment encoding the CMV/T7 promoter, SV40 small t intron/poly A signal, polyoma virus enhancer/origin, and SV40 enhancer/origin. The resulting fragment was ligated to a larger fragment of PvuII-digested PUC19. An internal deletion was introduced between unique BamHI and BclI sites present in the DCM8 portion. […]

[1] = system: F9 teratocarcinoma stem cells; assay: CAT reporter transfection into RA responsive F9 teratocarcinoma stem cells; type: cell-based, mouse; conditions: RA 1 μM, 24 hours; no transfected receptor
Method: For cotransfection assays, a monkey kidney cell line CV-1 was kept in Dulbecco's modified Eagle's medium (DMEM) supplemented with 10% charcoal-resin double split calf bovine serum. Transfections were performed via calcium-phosphate precipitation method as described by Umesono, et al. in Cell 57: 1139-1146 (1989), with 0.5 μg of a pRS receptor expression plasmid, 1.0 μg of a reporter CAT plasmid, 5 μg of pRAS-βGAL [Umesono, et al., Cell 57: 1139-1146 (1989)] as an internal control, and 8.5 μg of carrier plasmid pUC19. The cells were transfected for 8 hours; after washing the DNA precipitates, the cells were then incubated for an additional 36 hours with or without the ligand (T3, 100 nM; RA, 1 μM; 1,25-(OH)2 vitamin D3, 100 nM). Cell extracts were prepared for βGAL and CAT assays, as described by Umesono, et al., supra. Transfection of F9 teratocarcinoma cells was carried out employing a similar method except the cells were incubated for 12 hours in the presence of the DNA precipitates, and the RA was added at 1 μM for another 24 hours before harvesting the cells. 2, 5, and 4 μg of the reporter, pRAS-βGAL, and pUC19 were used, respectively.
Similarly, when the same set of reporters as in FIG. 4 were transfected into F9 cells, only MHC-R (5-nucleotide spacer) and TREp are potent RAREs. In contrast, its RARE antecedents (MHC-N, MHC+1, MHC-T) are inert.

Substance: GDR-3: identical to DR-3 except half-site changed to AGAACA, a GRE half-site (SEQ ID NO:26) (AGCTTCAGAACAAGGAGAACAGAGAGCT; DNA, backbone not given here; double-stranded DNA response element with agct overhangs, cloned into reporter)
- vitamin D3 response (in words) (VDR): completely inactive

Substance: GDR-4: identical to DR-4 except half-site changed to AGAACA, a GRE half-site (SEQ ID NO:28) (AGCTTCAGAACACAGGAGAACAGAGAGCT; DNA, backbone not given here; double-stranded DNA response element with agct overhangs, cloned into reporter)
- vitamin D3 response (in words) (VDR): completely inactive

Substance: MHC-N: 23-nucleotide core of the wild-type sequence (MHC-TRE) (SEQ ID NO:14) (AGCTGGAGGTGACAGGAGGACAGCAAGCT; DNA, backbone not given here; further chemistry not fully specified)
- function as RARE in F9 cells [1]: inert

Substance: TREp: optimized palindromic rat growth hormone TRE (SEQ ID NO:10) (AGCTTCAGGTCATGACCTGAGAGCT; DNA, backbone not given here; double-stranded response element with agct overhangs, cloned into reporter plasmid) [reference compound]
- function as RARE in F9 cells [1]: potent RAREs
